Patent publication US20230265151A1, “GIP/GLP1 CO-AGONIST COMPOUNDS” (priority 2020, published 2023)
Read-outs that look alike come from different tables or passages of the source.

Tests used:
Format in all cases: cell-based
hGLP-1R = hGLP-1R (Homo sapiens, UniProt P43220); experiment: Functional cAMP formation (HTRF) in HEK-293 clonal cells expressing hGLP-1R, 0.1% bovine casein, without or with 1.0% human serum albumin; parameters: expressed in transfected cells; details: for Emax: percent of maximal response to GLP-1(7-36)NH2; for EC50: cAMP
How it was run: (§1)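 Cells were stimulated with peptide for 30 min at 37° C, then lysed in buffer carrying cAMP-d2 and anti-cAMP Eu3+-cryptate for a competitive HTRF read after at least 60 min at room temperature. The 665/620 nm ratio was converted to nM cAMP against a standard curve.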

hGCGR = molecular target: T1, hGCGR (Homo sapiens, UniProt P47871); experiment: Functional cAMP formation (HTRF) in HEK-293 clonal cells expressing hGCGR, 0.1% bovine casein, without or with 1.0% human serum albumin; details: cAMP, 37° C.
T1 construct: expressed in transfected cells
How it was run: as §1

hGIPR = molecular target: T2, hGIPR (Homo sapiens, UniProt P48546); experiment: Functional cAMP formation (HTRF) in HEK-293 clonal cells expressing hGIPR, 0.1% bovine casein, without or with 1.0% human serum albumin; details: for Emax: percent of maximal response to GIP(1-42)NH2; for EC50: cAMP
T2 construct: expressed in transfected cells
T2 sequence (P48546 22-466): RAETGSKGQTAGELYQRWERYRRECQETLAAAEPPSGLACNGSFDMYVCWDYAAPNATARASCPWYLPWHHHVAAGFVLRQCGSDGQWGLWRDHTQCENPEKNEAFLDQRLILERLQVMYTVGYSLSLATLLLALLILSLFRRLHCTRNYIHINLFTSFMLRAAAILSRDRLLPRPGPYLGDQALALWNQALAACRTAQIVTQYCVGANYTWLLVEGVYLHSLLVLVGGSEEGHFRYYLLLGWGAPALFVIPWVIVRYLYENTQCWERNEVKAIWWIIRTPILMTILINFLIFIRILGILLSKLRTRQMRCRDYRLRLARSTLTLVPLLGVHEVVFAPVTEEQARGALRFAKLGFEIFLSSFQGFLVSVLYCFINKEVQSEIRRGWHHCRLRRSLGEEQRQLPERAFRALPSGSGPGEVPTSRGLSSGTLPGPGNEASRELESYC
How it was run: as §1

[1] = HEK293, read-out: hGLP-1R Emax, % ± SEM, cAMP, 37° C., 0.1% bovine casein and 1.0% human serum albumin
[2] = hGLP-1R EC50, nM (SEM, n), 37° C., 0.1% bovine casein (no human serum albumin), geometric mean
[3] = hGCGR EC50, nM (SEM, n), 0.1% bovine casein (no human serum albumin), geometric mean
[4] = hGCGR EC50, nM (SEM, n), 0.1% bovine casein and 1.0% human serum albumin, geometric mean (SEM, n)
[5] = HEK293, read-out: hGIPR Emax, % ± SEM, cAMP, 37° C., 0.1% bovine casein and 1.0% human serum albumin
[6] = 37° C., 0.1% bovine casein (no human serum albumin), geometric mean, read-out: hGLP-1R EC50, nM (SEM, n)
[7] = 0.1% bovine casein (no human serum albumin), geometric mean, read-out: hGCGR EC50, nM (SEM, n)
[8] = 0.1% bovine casein and 1.0% human serum albumin, geometric mean (SEM, n), read-out: hGCGR EC50, nM (SEM, n)
[9] = HEK293, cAMP, 37° C., 0.1% bovine casein and 1.0% human serum albumin, read-out: hGIPR Emax, % ± SEM
[10] = 37° C., 0.1% bovine casein and 1.0% human serum albumin, geometric mean (SEM, n), read-out: hGIPR EC50, nM (SEM, n)

T1 sequence (P47871 26-477): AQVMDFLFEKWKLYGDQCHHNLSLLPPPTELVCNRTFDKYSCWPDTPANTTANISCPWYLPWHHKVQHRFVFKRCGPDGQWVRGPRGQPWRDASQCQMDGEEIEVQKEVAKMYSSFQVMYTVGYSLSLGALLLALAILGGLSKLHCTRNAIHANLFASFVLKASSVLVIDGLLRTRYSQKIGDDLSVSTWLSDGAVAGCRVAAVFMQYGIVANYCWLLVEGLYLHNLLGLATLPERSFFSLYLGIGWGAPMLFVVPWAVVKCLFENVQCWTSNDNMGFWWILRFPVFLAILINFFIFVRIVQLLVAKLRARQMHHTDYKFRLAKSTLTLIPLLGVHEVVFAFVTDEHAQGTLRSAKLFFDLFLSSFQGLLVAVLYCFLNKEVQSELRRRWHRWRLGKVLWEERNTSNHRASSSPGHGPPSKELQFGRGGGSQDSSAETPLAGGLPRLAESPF
Chain of hGLP-1R (P43220 24-463): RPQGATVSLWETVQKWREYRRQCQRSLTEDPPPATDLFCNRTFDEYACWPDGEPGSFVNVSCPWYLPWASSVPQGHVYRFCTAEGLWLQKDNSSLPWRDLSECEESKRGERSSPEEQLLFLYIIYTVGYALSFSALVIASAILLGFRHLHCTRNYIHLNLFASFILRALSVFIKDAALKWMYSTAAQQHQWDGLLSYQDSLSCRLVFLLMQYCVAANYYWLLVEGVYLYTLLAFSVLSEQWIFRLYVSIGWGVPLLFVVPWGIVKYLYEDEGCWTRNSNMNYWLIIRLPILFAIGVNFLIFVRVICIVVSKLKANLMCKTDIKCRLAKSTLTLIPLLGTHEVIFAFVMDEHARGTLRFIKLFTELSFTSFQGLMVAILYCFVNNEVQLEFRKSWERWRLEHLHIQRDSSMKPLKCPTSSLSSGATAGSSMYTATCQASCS

Row | SMILES | Emax (hGLP-1R; [1]) [%] | Emax (hGLP-1R; HEK293, read-out: hGLP-1R Emax, % ± SEM, cAMP, 37° C., 0.1% bovine casein, arithmetic mean) [%] | EC50 (hGLP-1R; [2]) [nM] | EC50 (hGCGR; [3]) [nM] | EC50 (hGCGR; [4]) [nM] | Emax (hGIPR; [5]) [%] | Emax (hGIPR; HEK293, read-out: hGIPR Emax, % ± SEM, cAMP, 37° C., 0.1% bovine casein, arithmetic mean) [%] | EC50 (hGIPR; hGIPR EC50, nM (SEM, n), 37° C., 0.1% bovine casein (no human serum albumin), geometric mean) [nM] | Emax (hGLP-1R; HEK293, cAMP, 37° C., 0.1% bovine casein, arithmetic mean, read-out: hGLP-1R Emax, % ± SEM) [%] | EC50 (hGLP-1R; [6]) [nM] | EC50 (hGLP-1R; 37° C., 0.1% bovine casein and 1.0% human serum albumin, geometric mean (SEM, n), read-out: hGLP-1R EC50, nM (SEM, n)) [nM] | EC50 (hGCGR; [7]) [nM] | EC50 (hGCGR; [8]) [nM] | Emax (hGIPR; [9]) [%] | EC50 (hGIPR; [10]) [nM] | Emax (hGIPR; HEK293, cAMP, 37° C., 0.1% bovine casein, arithmetic mean, read-out: hGIPR Emax, % ± SEM) [%] | EC50 (hGIPR; 37° C., 0.1% bovine casein (no human serum albumin), geometric mean, read-out: hGIPR EC50, nM (SEM, n)) [nM]
1 | CC[C@H](C)[C@H](NC(=O)[C@H](CCCN)NC(=O)[C@H](CC(=O)O)NC(=O)[C@H](CC(C)C)NC(=O)[C@](C)(CC(C)C)NC(=O)[C@@H](NC(=O)[C@H](CO)NC(=O)[C@H](CCc1ccc(O)cc1)NC(=O)[C@H](CC(=O)O)NC(=O)[C@H](CO)NC(=O)[C@@H](NC(=O)[C@](C)(Cc1ccccc1F)NC(=O)[C@@H](NC(=O)CNC(=O)[C@H](CCC(=O)O)NC(=O)C(C)(C)NC(=O)[C@@H](N)Cc1ccc(O)cc1)[C@@H](C)O)[C@@H](C)O)[C@@H](C)CC)C(=O)N[C@@H](C)C(=O)N[C@@H](CCC(N)=O)C(=O)NC(C)(C)C(=O)N[C@@H](CCCCNC(=O)COCCOCCNC(=O)COCCOCCNC(=O)CC[C@H](NC(=O)CCCCCCCCCOc1ccc(C(=O)O)cc1)C(=O)O)C(=O)N[C@@H](Cc1ccccc1)C(=O)N[C@H](C(=O)N[C@H](CCC(=O)O)C(=O)N[C@@](C)(Cc1ccc(O)cc1)C(=O)N[C@@H](CC(C)C)C(=O)N[C@H](C(=O)N[C@@H](CCCCNC(=O)COCCOCCNC(=O)COCCOCCNC(=O)CC[C@H](NC(=O)CCCCCCCCCOc1ccc(C(=O)O)cc1)C(=O)O)C(=O)NCC(=O)NCC(=O)N1CCC[C@H]1C(=O)N[C@@H](CO)C(=O)N[C@@H](CO)C(=O)NCC(=O)N[C@@H](C)C(=O)N1CCC[C@H]1C(=O)N1CCC[C@H]1C(=O)N1CCC[C@H]1C(=O)N[C@@H](CO)C(N)=O)[C@@H](C)CC)[C@@H](C)CC [Example 332] | 116 | 114 | 0.263 | > 9950 | > 9950 | 96.5 | – | – | – | – | – | – | – | – | – | – | –
2 | CCCC[C@H](NC(=O)[C@H](CC(=O)O)NC(=O)[C@H](CO)NC(=O)[C@@H](NC(=O)[C@](C)(Cc1ccccc1F)NC(=O)[C@@H](NC(=O)CNC(=O)[C@H](CCC(=O)O)NC(=O)C(C)(C)NC(=O)[C@@H](N)Cc1ccc(O)cc1)[C@@H](C)O)[C@@H](C)O)C(=O)N[C@@H](CO)C(=O)N[C@H](C(=O)N[C@@](C)(CC(C)C)C(=O)N[C@@H](CC(C)C)C(=O)N[C@@H](CC(=O)O)C(=O)N[C@@H](CCCN)C(=O)N[C@H](C(=O)N[C@@H](C)C(=O)N[C@@H](CCC(N)=O)C(=O)NC(C)(C)C(=O)N[C@@H](CCCCNC(=O)COCCOCCNC(=O)COCCOCCNC(=O)CC[C@H](NC(=O)CCCCCCCCCOc1ccc(C(=O)O)cc1)C(=O)O)C(=O)N[C@@H](Cc1ccccc1)C(=O)N[C@H](C(=O)N[C@H](CCC(=O)O)C(=O)N[C@@](C)(Cc1ccc(O)cc1)C(=O)N[C@@H](CC(C)C)C(=O)N[C@H](C(=O)N[C@@H](CCCCNC(=O)COCCOCCNC(=O)COCCOCCNC(=O)CC[C@H](NC(=O)CCCCCCCCCOc1ccc(C(=O)O)cc1)C(=O)O)C(=O)NCC(=O)NCC(=O)N1CCC[C@H]1C(=O)N[C@@H](CO)C(=O)N[C@@H](CO)C(=O)NCC(=O)N[C@@H](C)C(=O)N1CCC[C@H]1C(=O)N1CCC[C@H]1C(=O)N1CCC[C@H]1C(=O)N[C@@H](CO)C(N)=O)[C@@H](C)CC)[C@@H](C)CC)[C@@H](C)CC)[C@@H](C)CC [Example 333] | 93.3 | – | 0.388 | > 9950 | > 9950 | 100 | 109 | 0.0062 | – | – | – | – | – | – | – | – | –
3 | CCCCCCCCCCCC(=O)N[C@@H](CCC(=O)NCCOCCOCC(=O)NCCOCCOCC(=O)NCCCC[C@H](NC(=O)[C@H](CCCN)NC(=O)[C@H](CC(=O)O)NC(=O)[C@H](CC(C)C)NC(=O)[C@](C)(CC(C)C)NC(=O)[C@@H](NC(=O)[C@H](CO)NC(=O)[C@H](CCc1ccc(O)cc1)NC(=O)[C@H](CC(=O)O)NC(=O)[C@H](CO)NC(=O)[C@@H](NC(=O)[C@](C)(Cc1ccccc1F)NC(=O)[C@@H](NC(=O)CNC(=O)[C@H](CCC(=O)O)NC(=O)C(C)(C)NC(=O)[C@@H](N)Cc1ccc(O)cc1)[C@@H](C)O)[C@@H](C)O)[C@@H](C)CC)C(=O)N[C@@H](C)C(=O)N[C@@H](CCC(N)=O)C(=O)NC(C)(C)C(=O)N[C@@H](CCC(=O)O)C(=O)N[C@@H](Cc1ccccc1)C(=O)N[C@H](C(=O)N[C@H](CCC(=O)O)C(=O)N[C@@](C)(Cc1ccc(O)cc1)C(=O)N[C@@H](CC(C)C)C(=O)N[C@H](C(=O)N[C@@H](CCCCNC(=O)COCCOCCNC(=O)COCCOCCNC(=O)CC[C@H](NC(=O)CCCCCCCCCCC)C(=O)O)C(=O)NCC(=O)NCC(=O)N1CCC[C@H]1C(=O)N[C@@H](CO)C(=O)N[C@@H](CO)C(=O)NCC(=O)N[C@@H](C)C(=O)N1CCC[C@H]1C(=O)N1CCC[C@H]1C(=O)N1CCC[C@H]1C(=O)N[C@@H](CO)C(N)=O)[C@@H](C)CC)[C@@H](C)CC)C(=O)O [Example 335] | – | – | – | – | – | – | – | – | 113 | 0.175 | 12.3 | > 9950 | > 9950 | 85.2 | 1.04 | – | –
4 | CC[C@H](C)[C@H](NC(=O)[C@H](CC(C)C)NC(=O)[C@](C)(Cc1ccc(O)cc1)NC(=O)[C@@H](CCC(=O)O)NC(=O)[C@@H](NC(=O)[C@H](Cc1ccccc1)NC(=O)[C@H](CCCCNC(=O)COCCOCCNC(=O)CC[C@H](NC(=O)CCCCCCCCCCCCC(=O)O)C(=O)O)NC(=O)C(C)(C)NC(=O)[C@H](CCC(N)=O)NC(=O)[C@H](C)NC(=O)[C@H](CCCCNC(=O)COCCOCCNC(=O)CC[C@H](NC(=O)CCCCCCCCCCCCC(=O)O)C(=O)O)NC(=O)[C@H](CCCN)NC(=O)[C@H](CC(=O)O)NC(=O)[C@H](CC(C)C)NC(=O)[C@](C)(CC(C)C)NC(=O)[C@@H](NC(=O)C(C)(C)NC(=O)[C@H](Cc1ccncc1)NC(=O)[C@H](CC(=O)O)NC(=O)[C@H](CO)NC(=O)[C@@H](NC(=O)[C@](C)(Cc1ccccc1F)NC(=O)[C@@H](NC(=O)CNC(=O)[C@H](CCC(=O)O)NC(=O)C(C)(C)NC(=O)[C@@H](N)Cc1ccc(O)cc1)[C@@H](C)O)[C@@H](C)O)[C@@H](C)CC)[C@@H](C)CC)C(=O)N[C@@H](CCC(=O)O)C(=O)NCC(=O)NCC(=O)N1CCC[C@H]1C(=O)N[C@@H](CO)C(=O)N[C@@H](CO)C(=O)NCC(=O)N[C@@H](C)C(=O)N1CCC[C@H]1C(=O)N1CCC[C@H]1C(=O)N1CCC[C@H]1C(=O)N[C@@H](CO)C(N)=O [Example 336] | – | – | – | – | – | – | – | – | – | 0.338 | – | > 10100 | > 10100 | 94.6 | 2.92 | 109 | 0.0136
